37 molecules from patent US9783527B2, “Indazole ureas and method of use” (AbbVie Inc., priority 2014, dated 2017) can be followed below.

The target in the assay is human Nav1.7 (Homo sapiens (Human), UniProt Q15858). The assay is described as follows: FRET-based membrane potential assay, recombinant human sodium channel Nav1.7. The assay is classed as cell-based. The following applies: HEK293 cells stably expressing recombinant human Nav1.7; depolarization with veratridine (EC80) + scorpion venom. The method in brief: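 IC50 derived by four-parameter Hill fit of percent inhibition of depolarization, measured as peak F440-480/F565-625 ratio over baseline. Stable human Nav1.7 HEK293 cells, dye-loaded with CC2-DMPE and DiSBAC2(3)/VABSC-1 at room temperature, received compound 3 min ahead of veratridine (EC80) plus scorpion venom.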
human Nav1.7, sequence (Q15858 whole entry): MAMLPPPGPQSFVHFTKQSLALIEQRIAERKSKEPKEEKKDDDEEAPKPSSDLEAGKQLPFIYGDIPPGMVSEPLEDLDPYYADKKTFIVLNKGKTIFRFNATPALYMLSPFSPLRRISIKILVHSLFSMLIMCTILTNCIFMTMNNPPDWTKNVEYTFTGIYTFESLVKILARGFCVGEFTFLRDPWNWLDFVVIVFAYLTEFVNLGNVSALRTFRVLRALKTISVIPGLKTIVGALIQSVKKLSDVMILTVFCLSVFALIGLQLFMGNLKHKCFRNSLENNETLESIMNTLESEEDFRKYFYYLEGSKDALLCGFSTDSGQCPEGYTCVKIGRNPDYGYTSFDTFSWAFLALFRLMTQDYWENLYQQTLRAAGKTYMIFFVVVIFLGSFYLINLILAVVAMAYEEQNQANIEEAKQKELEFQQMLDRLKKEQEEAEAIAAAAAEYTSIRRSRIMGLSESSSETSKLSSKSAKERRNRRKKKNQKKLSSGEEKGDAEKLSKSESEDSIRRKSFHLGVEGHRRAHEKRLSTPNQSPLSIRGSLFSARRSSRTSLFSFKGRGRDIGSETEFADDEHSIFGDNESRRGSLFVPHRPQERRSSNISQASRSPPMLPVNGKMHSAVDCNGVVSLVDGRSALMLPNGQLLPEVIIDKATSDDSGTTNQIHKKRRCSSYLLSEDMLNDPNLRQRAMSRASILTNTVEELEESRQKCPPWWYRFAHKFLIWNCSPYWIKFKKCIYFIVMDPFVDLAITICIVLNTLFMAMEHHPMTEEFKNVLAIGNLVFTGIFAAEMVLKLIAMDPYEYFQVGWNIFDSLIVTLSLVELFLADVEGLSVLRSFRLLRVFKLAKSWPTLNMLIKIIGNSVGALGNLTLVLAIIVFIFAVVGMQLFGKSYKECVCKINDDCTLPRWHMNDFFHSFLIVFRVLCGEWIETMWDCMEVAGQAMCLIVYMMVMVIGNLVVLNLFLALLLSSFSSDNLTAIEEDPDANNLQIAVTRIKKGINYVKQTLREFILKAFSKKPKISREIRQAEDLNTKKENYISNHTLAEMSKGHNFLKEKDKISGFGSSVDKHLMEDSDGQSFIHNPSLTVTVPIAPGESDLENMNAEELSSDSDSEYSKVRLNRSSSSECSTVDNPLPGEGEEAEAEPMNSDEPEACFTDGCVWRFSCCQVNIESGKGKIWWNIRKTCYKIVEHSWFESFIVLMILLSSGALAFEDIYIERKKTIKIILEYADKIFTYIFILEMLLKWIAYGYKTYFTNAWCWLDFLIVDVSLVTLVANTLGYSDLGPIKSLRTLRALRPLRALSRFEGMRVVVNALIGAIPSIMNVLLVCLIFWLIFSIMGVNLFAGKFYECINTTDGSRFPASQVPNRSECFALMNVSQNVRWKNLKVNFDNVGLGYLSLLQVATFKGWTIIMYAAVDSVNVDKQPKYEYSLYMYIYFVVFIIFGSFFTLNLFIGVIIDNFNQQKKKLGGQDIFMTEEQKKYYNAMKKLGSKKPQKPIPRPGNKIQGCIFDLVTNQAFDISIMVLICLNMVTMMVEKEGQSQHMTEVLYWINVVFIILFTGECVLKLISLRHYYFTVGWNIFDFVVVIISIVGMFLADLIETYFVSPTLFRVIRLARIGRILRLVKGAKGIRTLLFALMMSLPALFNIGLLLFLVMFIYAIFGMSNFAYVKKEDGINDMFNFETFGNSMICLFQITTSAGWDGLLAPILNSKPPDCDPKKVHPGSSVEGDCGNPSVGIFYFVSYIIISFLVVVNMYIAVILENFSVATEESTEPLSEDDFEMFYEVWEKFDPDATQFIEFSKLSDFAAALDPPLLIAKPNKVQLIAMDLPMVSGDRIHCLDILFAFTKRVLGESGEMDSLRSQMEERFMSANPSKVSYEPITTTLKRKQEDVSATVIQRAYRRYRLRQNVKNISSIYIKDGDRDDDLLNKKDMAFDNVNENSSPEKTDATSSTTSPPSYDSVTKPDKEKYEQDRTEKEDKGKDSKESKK
On to `Cn1cc2cc(N3CCN(c4cccc5c4cnn5-c4ccccc4F)C3=O)ccc2n1` [Example 191, 1-[1-(2-fluorophenyl)-1H-indazol-4-yl]-3-(2-methyl-2H-indazol-5-yl)imidazolidin-2-one], for which the IC50 stood at 2950 nM.

On to `O=C1N(c2ccc(C3CC3)o2)CCN1c1cccc2c1cnn2-c1ccccc1F` [Example 192, 1-(5-cyclopropyl-2-furyl)-3-[1-(2-fluorophenyl)-1H-indazol-4-yl]imidazolidin-2-one], for which the IC50 stood at 1360 nM.

With `O=C1N(CCc2ccccc2)CCN1c1cccc2c1cnn2-c1ccccc1F` [Example 193, 1-[1-(2-fluorophenyl)-1H-indazol-4-yl]-3-(2-phenylethyl)imidazolidin-2-one], the IC50 stood at 998 nM.

With `O=C1N(CC2CC2)CCN1c1cccc2c1cnn2-c1ccccc1F` [Example 194, 1-(cyclopropylmethyl)-3-[1-(2-fluorophenyl)-1H-indazol-4-yl]imidazolidin-2-one], the IC50 is 613 nM.

In the case of `C[C@@]1(c2cccc(F)c2)C[C@H](N2CCN(c3cccc4c3cnn4-c3ccccc3F)C2=O)CO1` [Example 195, 2,5-anhydro-1,3,4-trideoxy-2-(3-fluorophenyl)-4-{3-[1-(2-fluorophenyl)-1H-indazol-4-yl]-2-oxoimidazolidin-1-yl}-D-erythro-pentitol], the IC50 was 1390 nM.

With `O=C1N(c2cccc3c2cnn3-c2ccccc2F)CCN1[C@H]1CO[C@H](c2cccc(F)c2)C1` [Example 196, 1-[1-(2-fluorophenyl)-1H-indazol-4-yl]-3-[(3R,5S)-5-(3-fluorophenyl)tetrahydrofuran-3-yl]imidazolidin-2-one], the IC50 turned out to be 4310 nM.

For the molecule `O=C1N(Cc2cc(F)ccc2F)CCN1c1cccc2c1cnn2-c1ccccc1F` [Example 197, 1-(2,5-difluorobenzyl)-3-[1-(2-fluorophenyl)-1H-indazol-4-yl]imidazolidin-2-one], the IC50 came to 2140 nM.

Turning to `O=C1N(Cc2cccnc2)CCN1c1cccc2c1cnn2-c1ccccc1F` [Example 198, 1-[1-(2-fluorophenyl)-1H-indazol-4-yl]-3-(pyridin-3-ylmethyl)imidazolidin-2-one], the IC50 worked out at 1240 nM.

As for `Cc1cc(CN2CCN(c3cccc4c3cnn4-c3ccccc3F)C2=O)no1` [Example 199, 1-[1-(2-fluorophenyl)-1H-indazol-4-yl]-3-[(5-methyl-1,2-oxazol-3-yl)methyl]imidazolidin-2-one], the IC50 turned out to be 2970 nM.

Consider `O=C1N(CC2COC2)CCN1c1cccc2c1cnn2-c1ccccc1F` [Example 200, 1-[1-(2-fluorophenyl)-1H-indazol-4-yl]-3-(oxetan-3-ylmethyl)imidazolidin-2-one], for which the IC50 was 3610 nM.

Regarding `N#C[C@H]1CCCN1C(=O)CN1CCN(c2cccc3c2cnn3-c2ccccc2F)C1=O` [Example 201, (2R)-1-({3-[1-(2-fluorophenyl)-1H-indazol-4-yl]-2-oxoimidazolidin-1-yl}acetyl)pyrrolidine-2-carbonitrile], the IC50 was determined as 661 nM.

In the case of `O=C1N(CC(=O)N2CC3CCC2C3)CCN1c1cccc2c1cnn2-c1ccccc1F` (stereo not shown) [Example 202, 1-[2-(2-azabicyclo[2.2.1]hept-2-yl)-2-oxoethyl]-3-[1-(2-fluorophenyl)-1H-indazol-4-yl]imidazolidin-2-one], the IC50 stood at 681 nM.

Regarding `C[C@@]1(c2cccc(F)c2)C[C@@H](N2CCN(c3cccc4c3cnn4-c3ccccc3F)C2=O)CO1` [Example 203, 2,5-anhydro-1,3,4-trideoxy-2-(3-fluorophenyl)-4-{3-[1-(2-fluorophenyl)-1H-indazol-4-yl]-2-oxoimidazolidin-1-yl}-L-threo-pentitol], the IC50 was determined as 3670 nM.

On to `O=C1N(c2cccc3c2cnn3-c2ccccc2F)CCN1C1CCC(O)C1` (stereo not shown) [Example 204, 1-[1-(2-fluorophenyl)-1H-indazol-4-yl]-3-(3-hydroxycyclopentyl)imidazolidin-2-one], for which the IC50 is 3410 nM.

Take `O=C(CN1CCN(c2cccc3c2cnn3-c2ccccc2F)C1=O)N1CC(F)C(F)C1` (stereo not shown) [Example 206, 1-[2-(3,4-difluoropyrrolidin-1-yl)-2-oxoethyl]-3-[1-(2-fluorophenyl)-1H-indazol-4-yl]imidazolidin-2-one]: the IC50 is 1060 nM.

As for `O=C1N(c2cncc(N3CCOCC3)c2)CCN1c1cccc2c1cnn2-c1ccccc1F` [Example 207, 1-[1-(2-fluorophenyl)-1H-indazol-4-yl]-3-[5-(morpholin-4-yl)pyridin-3-yl]imidazolidin-2-one], the IC50 came to 1870 nM.

Turning to `O=C1N(c2cccnn2)CCN1c1cccc2c1cnn2-c1ccccc1F` [Example 208, 1-[1-(2-fluorophenyl)-1H-indazol-4-yl]-3-(pyridazin-3-yl)imidazolidin-2-one], the IC50 is 3260 nM.

For the molecule `O=C(CN1CCN(c2cccc3c2cnn3-c2ccccc2F)C1=O)NCC1CC1` [Example 209, N-(cyclopropylmethyl)-2-{3-[1-(2-fluorophenyl)-1H-indazol-4-yl]-2-oxoimidazolidin-1-yl}acetamide], the 50% inhibitory concentration (IC50) amounted to 1060 nM.

Consider `O=C1N(Cc2ccncc2)CCN1c1cccc2c1cnn2-c1ccccc1F` [Example 210, 1-[1-(2-fluorophenyl)-1H-indazol-4-yl]-3-(pyridin-4-ylmethyl)imidazolidin-2-one], for which the half-maximal inhibitory concentration (IC50) was determined as 3330 nM.

On to `Cc1nc(CN2CCN(c3cccc4c3cnn4-c3ccccc3F)C2=O)co1` [Example 211, 1-[1-(2-fluorophenyl)-1H-indazol-4-yl]-3-[(2-methyl-1,3-oxazol-4-yl)methyl]imidazolidin-2-one], for which the IC50 came to 1900 nM.

In the case of `O=C1N(CC(=O)N2[C@H]3CC[C@@H]2CC3)CCN1c1cccc2c1cnn2-c1ccccc1F` [Example 212, 1-{2-[(1s,4s)-7-azabicyclo[2.2.1]hept-7-yl]-2-oxoethyl}-3-[1-(2-fluorophenyl)-1H-indazol-4-yl]imidazolidin-2-one], the IC50 was 1140 nM.

Turning to `CC1(CN2CCN(c3cccc4c3cnn4-c3ccccc3F)C2=O)COC1` [Example 213, 1-[1-(2-fluorophenyl)-1H-indazol-4-yl]-3-[(3-methyloxetan-3-yl)methyl]imidazolidin-2-one], the IC50 amounted to 3650 nM.

As to `CO[C@H](CC(C)C)CN1CCN(c2cccc3c2cnn3-c2ccccc2F)C1=O` [Example 214, 1-[1-(2-fluorophenyl)-1H-indazol-4-yl]-3-[(2R)-2-methoxy-4-methylpentyl]imidazolidin-2-one], the IC50 came out at 2020 nM.

On to `CO[C@@H](CC(C)C)CN1CCN(c2cccc3c2cnn3-c2ccccc2F)C1=O` [Example 215, 1-[1-(2-fluorophenyl)-1H-indazol-4-yl]-3-[(2S)-2-methoxy-4-methylpentyl]imidazolidin-2-one], for which the IC50 was determined as 1080 nM.

With `CC(=O)N1CC(CN2CCN(c3cccc4c3cnn4-c3ccccc3F)C2=O)C1` [Example 216, 1-[(1-acetylazetidin-3-yl)methyl]-3-[1-(2-fluorophenyl)-1H-indazol-4-yl]imidazolidin-2-one], the IC50 was 20000 nM.

As to `Cc1nc(CN2CCN(c3cccc4c3cnn4-c3ccccc3F)C2=O)cs1` [Example 217, 1-[1-(2-fluorophenyl)-1H-indazol-4-yl]-3-[(2-methyl-1,3-thiazol-4-yl)methyl]imidazolidin-2-one], the IC50 worked out at 1070 nM.

As for `O=C1N(Cc2ncccn2)CCN1c1cccc2c1cnn2-c1ccccc1F` [Example 218, 1-[1-(2-fluorophenyl)-1H-indazol-4-yl]-3-(pyrimidin-2-ylmethyl)imidazolidin-2-one], the IC50 came to 2760 nM.

Take `Cc1cnc(CN2CCN(c3cccc4c3cnn4-c3ccccc3F)C2=O)nc1` [Example 219, 1-[1-(2-fluorophenyl)-1H-indazol-4-yl]-3-[(5-methylpyrimidin-2-yl)methyl]imidazolidin-2-one]: the IC50 amounted to 5210 nM.

In the case of `O=C1N(CCc2cccnc2)CCN1c1cccc2c1cnn2-c1ccccc1F` [Example 220, 1-[1-(2-fluorophenyl)-1H-indazol-4-yl]-3-[2-(pyridin-3-yl)ethyl]imidazolidin-2-one], the IC50 came out at 1840 nM.

Consider `O=C1N(c2nccs2)CCN1c1cccc2c1cnn2-c1ccccc1F` [Example 221, 1-[1-(2-fluorophenyl)-1H-indazol-4-yl]-3-(1,3-thiazol-2-yl)imidazolidin-2-one], for which the IC50 came out at 9500 nM.

On to `O=C1N(Cc2ccncn2)CCN1c1cccc2c1cnn2-c1ccccc1F` [Example 222, 1-[1-(2-fluorophenyl)-1H-indazol-4-yl]-3-(pyrimidin-4-ylmethyl)imidazolidin-2-one], for which the IC50 was 11200 nM.

As for `O=C1N(CC2CCO2)CCN1c1cccc2c1cnn2-c1ccccc1F` (stereo not shown) [Example 223, 1-[1-(2-fluorophenyl)-1H-indazol-4-yl]-3-(oxetan-2-ylmethyl)imidazolidin-2-one], the IC50 was determined as 11200 nM.

As to `O=C1N(c2cccc3c2cnn3-c2ccccc2F)CCN1[C@H]1CCOC1` [Example 224, 1-[1-(2-fluorophenyl)-1H-indazol-4-yl]-3-[(3S)-tetrahydrofuran-3-yl]imidazolidin-2-one], the IC50 stood at 3600 nM.

For the molecule `O=C1N(Cc2cocn2)CCCN1c1cccc2c1cnn2-c1ccccc1F` [Example 225, 1-[1-(2-fluorophenyl)-1H-indazol-4-yl]-3-(1,3-oxazol-4-ylmethyl)tetrahydropyrimidin-2(1H)-one], the IC50 is 14000 nM.

Take `O=C1N(c2cnccn2)CCN1c1cccc2c1cnn2-c1ccccc1F` [Example 226, 1-[1-(2-fluorophenyl)-1H-indazol-4-yl]-3-(pyrazin-2-yl)imidazolidin-2-one]: the IC50 was determined as 3370 nM.

On to `Cc1nc(CN2CCN(c3cccc4c3cnn4-c3ccccc3F)C2=O)c(C)o1` [Example 227, 1-[(2,5-dimethyl-1,3-oxazol-4-yl)methyl]-3-[1-(2-fluorophenyl)-1H-indazol-4-yl]imidazolidin-2-one], for which the IC50 is 871 nM.

As to `Cc1cncc(CN2CCN(c3cccc4c3cnn4-c3ccccc3F)C2=O)c1` [Example 228, 1-[1-(2-fluorophenyl)-1H-indazol-4-yl]-3-[(5-methylpyridin-3-yl)methyl]imidazolidin-2-one], the IC50 was determined as 1090 nM.

What is called IC50 is the concentration that inhibits the measured activity by half.
